# Non-standard residues stand in square brackets, D forms with d. Residues, ends and D or L forms follow the SMILES beside them. Phe(4-NO2) = N[C@@H](Cc1ccc([N+](=O)[O-])cc1)C(=O)O; Nle = CCCC[C@H](N)C(=O)O; 2Abz = Nc1ccccc1C(=O)O
# Biological target: T1, HIV-1 protease (Human immunodeficiency virus type 1 group M subtype B, UniProt P04585)
# T1 construct: made in house; host or cells: E. coli BL21 (dE3)pLysS, pET30a vector
# Assay: HIV-1 Protease Inhibition Assay
# Type: biochemical
# Conditions: cells marked (pM) in a column headed nM
# From the text: Assays of the dose-response effect of inhibitor compounds can be described as a curve expressing a degree of inhibition as a function of concentration. The curve theoretically passes through a point at which the concentration is sufficient to reduce activity of the HIV protease enzyme to a level that is 50% that of the difference between minimal and maximal enzyme activity in the assay.
# HIV-1 Protease Inhibition Assay
# The HIV-1 protease gene was subcloned into the pET30a vector (Novagen) and then transformed into BL21 (dE3)pLysS cells for protein expression. Protein expression and purification were followed according to Tang's procedure (Hong et al., Biochemistry, 1996, 35, 10627-10633). […] The inclusion body containing some bacterial proteins was thoroughly washed by using TRITON X-100, solubilized in […] and passed through the Q-sepharose column to remove the bacterial proteins which interfered with subsequent refolding steps. HIV-1 protease was refolded from the urea to an active form by dialysis. As a final step, gel filtration chromatography was used to remove impurities after refolding. Activities of purified HIV-1 protease were examined using a fluorogenic substrate, 2-aminobenzoyl-Thr-Ile-Nle-Phe(pNO2)-Gln-Arg-NH2 (Novabiochem). […] In the condition of So<<Km, v=Eo(kcat/Km)So, where Eo is the total enzyme concentration, and So is the substrate concentrate. […] Assays are carried out as described by Toth and Marshall (Toth et al., Int. J. Pept. Protein Res., 1990, 36, 544-50).
row,Compound,IC50 [pM]
1,Nc1ccc(S(=O)(=O)N(C[C@H]2CCC(=O)N2)C[C@@H](O)[C@H](Cc2ccccc2)NC(=O)OC2CC[C@H]3OCC[C@@H]23)cc1 (stereo partly drawn) [Compound 281],26

# Same assay, conditions: fluorogenic substrate assay
Compound,Ki [nM],IC50 [pM]
CC(C)CN(C[C@@H](O)[C@H](Cc1ccccc1)NC(=O)OC1CC2CCO[C@@H]2C1)S(=O)(=O)c1ccc(O)c(O)c1 (stereo partly drawn) [Compound 88],1.2,
CNCc1ccc(S(=O)(=O)N(CC(C)C)C[C@@H](O)[C@H](Cc2ccccc2)NC(=O)OC2CO[C@H]3OCCC23)cc1 (stereo partly drawn) [Compound 119],1.1,3500
COc1ccc(S(=O)(=O)N(CC(=O)[C@H](Cc2ccc(OCc3ccccc3)cc2)NC(=O)OC(C)(C)C)CC(C)C)cc1 [Compound 208],,> 2.3e+06
CC(C)CN(C[C@@H](O)[C@H](Cc1ccccc1)NC(=O)OC1CC2CCO[C@@H]2C1)S(=O)(=O)c1ccc(F)c(N)c1 (stereo partly drawn) [Compound 179],2,6400
CC(C)(C)OC(=O)NN(C[C@@H](O)[C@H](Cc1ccccc1)NC(=O)O[C@H]1CO[C@H]2OCCC21)S(=O)(=O)c1ccc(F)c(N)c1 (stereo partly drawn) [Compound 190],1.1,3500
Cc1ccc(S(=O)(=O)N(CC(C)C)C[C@@H](O)[C@H](Cc2ccccc2)NC(=O)OC2CO[C@H]3OCCC23)cc1CO (stereo partly drawn) [Compound 156],0.97,3100
CN(C)CCN(C[C@@H](O)[C@H](Cc1ccccc1)NC(=O)OC1CC2CCO[C@@H]2C1)S(=O)(=O)c1ccc(F)c(N)c1 (stereo partly drawn) [Compound 180],472,1.5e+06
Cc1ccc(S(=O)(=O)N(C[C@@H](O)[C@H](Cc2ccccc2)NC(=O)OC2CO[C@H]3OCCC23)C2CCOC2)cc1CO (stereo partly drawn) [Compound 161],1.6,2000
COc1ccc(S(=O)(=O)N(C[C@@H](O)[C@H](Cc2ccccc2)NC(=O)O[C@@H]2CC3CCO[C@@H]3C2)C2CN(C)C2)cc1 (stereo partly drawn) [Compound 204],1.7,5600
COc1ccc(S(=O)(=O)N(CC(C)C)C[C@@H](O)[C@H](Cc2ccc(OCc3ccccc3)cc2)NC(=O)O[C@H]2CO[C@H]3OCCC32)cc1 (stereo partly drawn) [Compound 212],9.3,30000
COc1ccc(S(=O)(=O)N(C[C@@H]2CCC(=O)N2)C[C@@H](O)[C@H](Cc2ccccc2)NC(=O)OC2CC[C@H]3OCC[C@@H]23)cc1 (stereo partly drawn) [Compound 278],,160
O=C1CC[C@@H](CN(C[C@@H](O)[C@H](Cc2ccccc2)NC(=O)OC2CO[C@H]3OCC[C@@H]23)S(=O)(=O)c2ccc([N+](=O)[O-])cc2)N1 (stereo partly drawn) [Compound 275],,370
O=C(N[C@@H](Cc1ccccc1)[C@H](O)CN1CCCC/C=C/CCCC(O)c2cccc(c2)S1(=O)=O)OCc1cccnc1 (stereo partly drawn) [Compound 239],11,34000
O=C(N[C@@H](Cc1ccccc1)[C@H](O)CN1CCCCCCCCOc2cccc(c2)S1(=O)=O)O[C@H]1CO[C@H]2OCCC21 (stereo partly drawn) [Compound 234],2.3,7300
O=C(N[C@@H](Cc1ccccc1)[C@H](O)CN(CCN1CCOCC1)S(=O)(=O)c1ccc(Cl)c(O)c1)OC1CO[C@H]2OCCC12 (stereo partly drawn) [Compound 154],7.8,25000
"CC(C)(C)NC(=O)[C@@H]1C[C@@H]2CCCC[C@@H]2CN1C[C@@H](O)[C@H](Cc1ccccc1)NC(=O)OC1CCCC12CCCO2 (single isomer, unassigned) [Compound 144]",,40000
CC(C)CN(C[C@@H](O)[C@H](Cc1ccccc1)NC(=O)OC1CO[C@H]2OCCC12)S(=O)(=O)c1cccc(CO)c1 (stereo partly drawn) [Compound 114],,1100
COc1ccc(S(=O)(=O)N(N)C[C@@H](O)[C@H](Cc2ccccc2)NC(=O)O[C@H]2CO[C@H]3OCCC32)cc1 (stereo partly drawn) [Compound 189],17,55000
O=C(N[C@@H](Cc1ccccc1)[C@H](O)CN1CCCC/C=C\CCCCOc2cccc(c2)S1(=O)=O)O[C@@H]1CC2CCO[C@@H]2C1 (stereo partly drawn) [Compound 235],2.9,9300

Compound,Ki [nM],IC50 [pM]
O=C(N[C@@H](Cc1ccccc1)[C@H](O)CN1CCCCCCCCCOc2ccccc2COC1=O)O[C@@H]1CC2CCO[C@@H]2C1 (stereo partly drawn) [Compound 228],638,2.2e+06
C=CCCCCN(C[C@@H](O)[C@H](Cc1ccccc1)NC(=O)O[C@H]1CO[C@H]2OCCC21)S(=O)(=O)c1cccc(OCC=C)c1 (stereo partly drawn) [Compound 229],2.1,9100
O=C1CC[C@H](CN(C[C@@H](O)[C@H](Cc2ccccc2)NC(=O)OC2CC[C@H]3OCC[C@@H]23)S(=O)(=O)c2ccc([N+](=O)[O-])cc2)N1 (stereo partly drawn) [Compound 279],,340
CC(C)CN(C[C@@H](O)[C@H](Cc1ccccc1)NC(=O)OC1CC2CCO[C@@H]2C1)S(=O)(=O)Cc1ccccc1 (stereo partly drawn) [Compound 133],15,48000
COc1ccc(S(=O)(=O)N(C[C@@H](O)[C@H](Cc2ccccc2)NC(=O)O[C@H]2CCOC2)C2CN(C)C2)cc1 [Compound 206],34,109000
"CC(C)(C)NC(=O)[C@@H]1C[C@@H]2CCCC[C@@H]2CN1C[C@@H](O)[C@H](Cc1ccccc1)NC(=O)OC1CCCC12CCCO2 (single isomer, unassigned) [Compound 145]",,96000
CC(C)CN(C[C@@H](O)[C@H](Cc1ccccc1)NC(=O)OC1CO[C@H]2OCCC12)S(=O)(=O)c1cccc(/C=N/O)c1 (stereo partly drawn) [Compound 120],0.74,2400
Cc1ccc(S(=O)(=O)N(CC(C)C)C[C@@H](O)[C@H](CC2CCN(C(=O)c3ccccc3)CC2)NC(=O)OC2CO[C@H]3OCCC23)cc1 (stereo partly drawn) [Compound 146],,1800
Cc1ccc(S(=O)(=O)N(CCN(C)C)C[C@@H](O)[C@H](Cc2ccccc2)NC(=O)O[C@@H]2CO[C@@H]3OCCC[C@@H]32)cc1CO [Compound 160],72,231000
CC(C)CN(C[C@@H](O)[C@H](Cc1ccccc1)NC(=O)OC1CO[C@H]2OCCC12)S(=O)(=O)c1ccc(CN)cc1 (stereo partly drawn) [Compound 118],0.9,2700
CC(C)CN(C[C@@H](O)[C@H](Cc1ccccc1)NC(=O)OC1CC2CCO[C@@H]2C1)S(=O)(=O)c1cncc(N)c1 (stereo partly drawn) [Compound 168],0.8,2500
C=CCCCCOc1cccc(S(=O)(=O)N(CCCCC=C)C[C@@H](O)[C@H](Cc2ccccc2)NC(=O)O[C@@H]2CC3CCO[C@@H]3C2)c1 (stereo partly drawn) [Compound 225i],5.3,17000
Cc1ccc(S(=O)(=O)N(CC(C)C)C[C@@H](O)[C@H](CC2CCN(Cc3ccccc3)CC2)NC(=O)OC2CO[C@H]3OCCC23)cc1 (stereo partly drawn) [Compound 149],,20000
COCc1ccc(S(=O)(=O)N(CC(C)C)C[C@@H](O)[C@H](Cc2ccccc2)NC(=O)OC2CC3CCO[C@@H]3C2)cc1 (stereo partly drawn) [Compound 130],,800
O=C(N[C@@H](Cc1ccccc1)[C@H](O)CN1CCCC/C=C\COc2cccc(c2)S1(=O)=O)O[C@@H]1CC2CCO[C@@H]2C1 (stereo partly drawn) [Compound 225g],3.1,10000
COc1ccc(S(=O)(=O)N(C[C@@H](O)[C@H](Cc2ccccc2)NC(=O)OC(C)(C)C)NC(=O)OC(C)(C)C)cc1 [Compound 187],166,534000
COc1ccc(S(=O)(=O)N(CC(C)C)C[C@H](O)[C@H](Cc2ccc(OCc3ccccc3)cc2)NC(=O)OC(C)(C)C)cc1 [Compound 209],9.3,30000
CC(C)CN(C[C@@H](O)[C@H](Cc1ccccc1)NC(=O)OC1CC2CCO[C@@H]2C1)C(=O)c1cc(O)cc(O)c1 (stereo partly drawn) [Compound 134],931,3e+06
O=C(N[C@@H](Cc1ccccc1)[C@H](O)CN1CCCC/C=C/CCCOc2cccc(c2)S1(=O)=O)O[C@H]1CO[C@H]2OCCC21 (stereo partly drawn) [Compound 225a],2.4,7800

# Biological target: T1, HIV-1 protease
# Assay: Kinetic measurements of the cleavage of anthranilyl fluorogenic substrate by HIV-1 protease
# Type: biochemical
# Conditions: purified refolded HIV-1 protease; read-out: Michaelis constant for the substrate Km
# From the text: The HIV-1 protease gene was subcloned into the pET30a vector (Novagen) and then transformed into BL21 (dE3)pLysS cells for protein expression. Protein expression and purification were followed according to Tang's procedure (Hong et al., Biochemistry, 1996, 35, 10627-10633). […] The inclusion body containing some bacterial proteins was thoroughly washed by using TRITON X-100, solubilized in BM urea and passed through the Q-sepharose column to remove the bacterial proteins which interfered with subsequent refolding steps. HIV-1 protease was refolded from the urea to an active form by dialysis. As a final step, gel filtration chromatography was used to remove impurities after refolding. Activities of purified HIV-1 protease were examined using a fluorogenic substrate, 2-aminobenzoyl-Thr-Ile-Nle-Phe(pNO2)-Gln-Arg-NH2 (Novabiochem). […] Using the first rate equation, kcat is calculated. In the condition of So<<Km, v=Eo(kcat/Km)So, where Eo is the total enzyme concentration, and So is the substrate concentrate.
row,Compound,Km [µM]
1,CCCC[C@H](NC(=O)[C@@H](NC(=O)[C@@H](NC(=O)c1ccccc1N)[C@@H](C)O)[C@@H](C)CC)C(=O)N[C@@H](Cc1ccc([N+](=O)[O-])cc1)C(=O)N[C@@H](CCC(N)=O)C(=O)N[C@@H](CCCNC(=N)N)C(N)=O [2-aminobenzoyl-Thr-Ile-Nle-Phe(pNO2)-Gln-Arg-NH2] (H-[2Abz]TI[Nle][Phe(4-NO2)]QR-NH2),4.5

# System: not given
# Assay: not given
# Conditions: not given
row,Compound,melting point [°C]
1,CC(C)CN(C[C@@H](O)[C@H](Cc1ccccc1)NC(=O)OC1CC2CCO[C@@H]2C1)S(=O)(=O)c1ccc(O)c(O)c1 (stereo partly drawn) [Compound 88],80 to 82
2,CNCc1ccc(S(=O)(=O)N(CC(C)C)C[C@@H](O)[C@H](Cc2ccccc2)NC(=O)OC2CO[C@H]3OCCC23)cc1 (stereo partly drawn) [Compound 119],57 to 62

# From patent publication US20070082883A1, “HIV protease inhibitors” (THE BOARD OF TRUSTEES OF THE UNIVERSITY OF ILLINOIS, priority 2002, published 2007)
